Reference: patent US20260226034A1 (The Rockefeller University, priority 2023, published 2026)

molecular target: NSP14 (Severe acute respiratory syndrome coronavirus 2, UniProt P0DTD1); experiment: NSP14 MTase inhibition assay at 37° C. (MTase-Glo SAH detection); assay type: biochemical, SARS-CoV-2; settings: 0.3 nM NSP14, 2.5 μM SAM, 2.5 μM GpppA RNA, 45 min at 37° C.; read-out: Nsp14 Mtase Inh. IC50
Procedure: NSP14 MTase assay at 37° C. (0.3 nM NSP14 as final enzyme concentration)
The NSP14 MTase assay at 37° C. is carried out in 384-well flat bottom polystyrene microplates (Greiner, 781075). Per well, 10 μl of 1×NSP14 reaction buffer (50 mM Tris-HCl, pH 7.5, 6 mM KCl, 1.25 mM MgCl2, 1 mM DTT, and 0.01% Tween-20) are dispensed in columns 1-23 using a Thermo Multidrop Combi dispenser (Thermo Scientific). 0.1 μl of serially diluted compounds in DMSO are dispensed into columns 1-22 of the assay microplates with a Janus 384 MDT NanoHead (PerkinElmer). In wells of column 23, which serve as negative controls, no compounds are added.
The NSP14 reaction is started by adding 4 μl of a 4× substrate solution containing S-adenosyl methionine (SAM, 10 μM) and GpppA RNA (10 μM) prepared in 1×NSP14 reaction buffer. Any addition of reagents is followed by a 30 second centrifugation at 500×g to ensure that all liquid was collected at the bottom of the well. The final concentrations of NSP14, SAM, and GpppA RNA are 0.3 nM, 2.5 μM, and 2.5 μM, respectively. The final reaction volume is 16 μl. Plates are sealed and incubated for 45 min at 37° C.
For SAH detection, 1 μl 5× MTase-Glo™ Reagent (Promega) is added to each well, plates are mixed for 1-2 minutes and incubated at room temperature for 30 minutes. 5 μl of room-temperature MTase-Glo™ Detection Solution (Promega) is added to each well, plates are mixed for 1-2 minutes and incubated at room temperature for 30 minutes. Luminescence signals of each well are recorded in relative light units (RLUs) using a Biotek Synergy Neo plate reader (BioTek, Winooski, VT). The SAH production is normalized against the positive control (PK, column 24) and negative control (NK, column 23) as follows: normalized % inhibition=100×(RLUsample-RLUaverageNK)/(RLUaveragePK-RLUaverageNK).

Compound | IC50 [pM]
Cc1c(S(=O)(=O)c2ccc3nn[nH]c3c2)cc(C(=O)NCc2c(F)ccc3occc23)n1C [A.31, 4-((1H-benzo[d][1,2,3]triazol-6-yl)sulfonyl)-N-((5-fluorobenzofuran-4-yl)methyl)-1,5-dimethyl-1H-pyrrole-2-carboxamide] | 315000
Cc1c(S(=O)(=O)c2ccc(C(C)O)cc2)cc(C(=O)NCc2cccc3cnn(C)c23)n1C (stereo not shown) [A.32, 4-[4-(1-hydroxyethyl)phenyl]sulfonyl-1,5-dimethyl-N-[(1-methylindazol-7-yl)methyl]pyrrole-2-carboxamide] | 389000
Cc1c(S(=O)(=O)c2ccc3[nH]ncc3c2)cc(C(=O)N[C@@H]2CCN(c3ncc(F)cn3)C2)n1C [A.34, N-[(3R)-1-(5-fluoropyrimidin-2-yl)pyrrolidin-3-yl]-4-(1H-indazol-5-ylsulfonyl)-1,5-dimethyl-pyrrole-2-carboxamide] | 170
Cc1c(S(=O)(=O)c2ccc3[nH]ncc3c2)cc(C(=O)NC2CCN(c3ncc(F)cn3)CC2)n1C [A.35] | 560
Cc1c(S(=O)(=O)c2ccc3[nH]ncc3c2)cc(C(=O)NC2CN(c3ncc(F)cn3)C2)n1C [A.36] | 2200
Cc1c(S(=O)(=O)c2ccc3[nH]ncc3c2)cc(C(=O)N[C@@H]2CCN(c3ncccc3C#N)C2)n1C [A.37] | < 150
Cc1c(S(=O)(=O)c2ccc3[nH]ncc3c2)cc(C(=O)N[C@@H]2CCN(c3cccc(C(F)(F)F)n3)C2)n1C [A.38] | 800
Cc1c(S(=O)(=O)c2ccc3[nH]nc(F)c3c2)cc(C(=O)N[C@@H]2CCN(c3ncc(F)cn3)C2)n1C [A.39] | < 150
Cc1c(S(=O)(=O)c2cc(F)c3[nH]ncc3c2)cc(C(=O)N[C@@H]2CCN(c3ncc(F)cn3)C2)n1C [A.40] | < 150
Cc1c(S(=O)(=O)c2cc(Cl)c3[nH]ncc3c2)cc(C(=O)N[C@@H]2CCN(c3ncc(F)cn3)C2)n1C [A.41] | < 150
Cc1c(S(=O)(=O)c2ccc3[nH]ncc3c2)cc(C(=O)N[C@@H]2CCN(c3ncc(Cl)cn3)C2)n1C [A.42] | 420
Cc1c(S(=O)(=O)c2ccc3[nH]ncc3c2)cc(C(=O)N[C@@H]2CCN(c3ncccc3F)C2)n1C [A.43] | 420
Cc1c(S(=O)(=O)c2ccc3[nH]ncc3c2)cc(C(=O)N[C@@H]2CCN(c3ccc(Cl)cn3)C2)n1C [A.44] | < 150
Cc1c(S(=O)(=O)c2ccc3[nH]ncc3c2)cc(C(=O)N[C@@H]2CCN(c3nccc(C#N)n3)C2)n1C [A.45] | 370
Cc1c(S(=O)(=O)c2ccc3[nH]ncc3c2)cc(C(=O)NC2CN(c3ncc(F)cn3)C[C@@H]2F)n1C (stereo partly shown) [A.46] | 770
Cc1c(S(=O)(=O)c2ccc3[nH]ncc3c2)cc(C(=O)N[C@H]2CCN(c3ncc(F)cn3)C2)n1C [A.47] | 2200
Cc1c(S(=O)(=O)c2ccc3[nH]ncc3c2)cc(C(=O)N[C@H]2CN(c3ncc(F)cn3)C[C@H]2F)n1C [A.48] | 33000
Cc1c(S(=O)(=O)c2ccc3[nH]ncc3c2)cc(C(=O)N[C@@H]2CCN(c3ncc(C#N)cn3)C2)n1C [A.49] | 630
Cc1c(S(=O)(=O)c2ccc3[nH]ncc3c2)cc(C(=O)N[C@@H]2CCN(c3cnc(F)cn3)C2)n1C [A.50] | < 150
Cc1c(S(=O)(=O)c2ccc3[nH]ncc3c2)cc(C(=O)N[C@@H]2CCN(c3ccc(F)cn3)C2)n1C [A.51] | < 150
Cc1c(S(=O)(=O)c2ccc3[nH]ncc3c2)cc(C(=O)N[C@@H]2CCN(c3ncc(C(F)(F)F)cn3)C2)n1C [A.52] | 300
Cc1c(S(=O)(=O)c2ccc3[nH]ncc3c2)cc(C(=O)N[C@@H]2CCN(c3ccc(F)nn3)C2)n1C [A.53] | 360
Cc1c(S(=O)(=O)c2ccc3[nH]ncc3c2)cc(C(=O)N[C@@H]2CCN(c3ncc(F)cc3F)C2)n1C [A.54] | < 150
Cc1c(S(=O)(=O)c2ccc3[nH]ncc3c2)cc(C(=O)N[C@@H]2CCN(c3cccc4ccnn34)C2)n1C [A.55] | 900
Cc1c(S(=O)(=O)c2ccc3[nH]ncc3c2)cc(C(=O)N[C@@H]2CCN(c3ccc(F)nc3)C2)n1C [A.56] | 200

Compound | IC50 [pM]
Cc1c(S(=O)(=O)c2ccc3[nH]ncc3c2)cc(C(=O)N[C@@H]2CCN(c3ccc(C#N)cc3)C2)n1C [A.57] | 570
Cc1c(S(=O)(=O)c2ccc3[nH]ncc3c2)cc(C(=O)N[C@@H]2CCN(c3cccn4nccc34)C2)n1C [A.59] | 180
Cc1c(S(=O)(=O)c2ccc3[nH]ncc3c2)cc(C(=O)N[C@@H]2CCN(c3ccn4nccc4c3)C2)n1C [A.60] | 280
Cc1c(S(=O)(=O)c2ccc3[nH]ncc3c2)cc(C(=O)N[C@@H]2CCN(c3cccc4c3cnn4C)C2)n1C [A.61] | 390
Cc1c(S(=O)(=O)c2ccc3[nH]ncc3c2)cc(C(=O)N[C@H]2CN(c3ncc(F)cn3)CC23CC3)n1C [A.62] | 410
Cc1c(S(=O)(=O)c2cc(C#N)c3[nH]ncc3c2)cc(C(=O)N[C@@H]2CCN(c3ncc(F)cn3)C2)n1C [A.63] | 460
Cc1c(S(=O)(=O)c2ccc3[nH]ncc3c2)cc(C(=O)N[C@@H]2CCN(c3ncccn3)C2)n1C [A.64] | 780
Cc1c(S(=O)(=O)c2ccc3[nH]ncc3c2)cc(C(=O)N[C@@H]2CCN(c3ccc(C(F)(F)F)cn3)C2)n1C [A.65] | 1000
Cc1c(S(=O)(=O)c2ccc3[nH]ncc3c2)cc(C(=O)N[C@@H]2CCN(c3nccc(C(F)(F)F)n3)C2)n1C [A.66] | 810
Cc1c(S(=O)(=O)c2cc(F)c3[nH]nc(F)c3c2)cc(C(=O)N[C@@H]2CCN(c3ncc(F)cn3)C2)n1C [A.67] | 380
O=C(N[C@@H]1CCN(c2ncc(F)cn2)C1)c1cc(S(=O)(=O)c2ccc3[nH]ncc3c2)c2n1CCC2 [A.68] | 360
Cc1c(S(=O)(=NCC2CC2)c2ccc3[nH]ncc3c2)cc(C(=O)N[C@@H]2CCN(c3ncc(F)cn3)C2)n1C (stereo partly shown) [A.69] | 8700
CN=S(=O)(c1ccc2[nH]ncc2c1)c1cc(C(=O)N[C@@H]2CCN(c3ncc(F)cn3)C2)n(C)c1C (stereo partly shown) [A.70] | 3900
Cc1c(S(=O)(=O)c2ccc3[nH]ncc3c2)cc(C(=O)N[C@@H]2CCN(c3cnccn3)C2)n1C [A.71] | 550
Cc1c(S(=O)(=O)c2ccc3[nH]ncc3c2)cc(C(=O)N[C@@H]2CCN(c3ccc(C#N)cn3)C2)n1C [A.72] | 290
Cc1c(S(=O)(=O)c2ccc3[nH]ncc3c2)cc(C(=O)N[C@@H]2CCN(c3cncnc3)C2)n1C [A.73] | 410
Cc1c(S(=O)(=O)c2ccc3[nH]ncc3c2)cc(C(=O)N[C@@H]2CCN(c3cc(C(F)(F)F)ccn3)C2)n1C [A.74] | 570
Cc1nc(N2CC[C@@H](NC(=O)c3cc(S(=O)(=O)c4ccc5[nH]ncc5c4)c(C)n3C)C2)nc(C)c1F [A.75] | 510
Cc1c(S(=O)(=O)c2ccc3[nH]ncc3c2)cc(C(=O)N[C@@H]2CCN(c3ccc(C(F)(F)F)nn3)C2)n1C [A.76] | 440
Cc1c(S(=O)(=O)c2ccc3[nH]ncc3c2)cc(C(=O)NC2CCCN(c3ncc(F)cn3)C2)n1C (stereo not shown) [A.77] | 7900
Cc1c(S(=O)(=O)c2ccc3[nH]ncc3c2)cc(C(=O)N[C@@H]2CCN(c3ccnnc3)C2)n1C [A.78] | 530
Cc1c(S(=O)(=O)c2ccc3[nH]ncc3c2)cc(C(=O)N[C@@H]2CCN(c3cc(C#N)ccn3)C2)n1C [A.79] | 600
Cc1c(S(=O)(=O)c2ccc3[nH]ncc3c2)cc(C(=O)N[C@@H]2CCN(c3ncccc3C(F)(F)F)C2)n1C [A.80] | 1500
Cc1c(S(=O)(=O)c2ccc3[nH]ncc3c2)cc(C(=O)N[C@@H]2CCN(c3ccc(F)cc3)C2)n1C [A.81] | 580
